{"source": "patent US20260183274A1", "about": "“PDK1 REGULATORY COMPOUND AND COMPOSITION CONTAINING THE SAME” (PROVIBIO CO., LTD., priority 2024, published 2026)", "key": {"MRL/lpr mice": {"tested_on": "MRL/lpr mice", "assay": "Lupus animal model (MRL/lpr mice)", "assay_type": "in vivo, mouse", "settings": "for Hair growth on the facial region: 41-week-old female MRL/lpr, GO15F 30 mg/kg, GO48 1 mg/kg, GO88 0.5 mg/kg i.p. once daily, FIG. 24", "source_text": "The MRL/MpJ-Faslpr/J (Hereinafter Referred to as “MRL/lpr”) used in this experiment is one of the representative animal models for systemic lupus erythematosus (SLE), known to produce various autoantibodies, including antinuclear antibodies, due to the lpr (lymphoproliferation) gene.\nIn this invention, the period up to 9 weeks of age was considered the pre-disease stage, and the period after 23 weeks of age was considered the post-disease stage, and efficacy verification experiments using this model were conducted.\nMRL/lpr mice were imported from The Jackson Laboratory and acclimatized for one week in an SPF (Specific Pathogen Free) facility maintained at a temperature of 21-24° C., humidity of 40-60%, and a 12-hour light-dark cycle (lights on at 7:00 AM, lights off at 7:00 PM).\nSubsequently, female and male MRL/lpr mice were mated at a ratio of 2:1 in the same facility, and the female offspring were administered the compound GO15F of the present invention or vehicle at a dose of 30 mg/kg […]\nUrine samples were collected once a week from each individual and used for analytical experiments. […]\nThe protein concentration in urine collected weekly from the control group or experimental group was analyzed using ‘Quick Start™ Bradford 1× Dye Reagent (Bio-Rad, Cat. #5000205).’\nIn each well of a 96-well plate, 5 μl of urine sample diluted with triple-distilled water and 250 μl of 1× dye reagent were added, reacted, and the absorbance was measured at 595 nm. […]\nEach kidney tissue was used to isolate total RNA using TRIzol™ (Invitrozen, Cat. #15596018). RNA from each mouse was quantified at 1 μg using a micro-quantitative spectrophotometer (ThermoFisher Scientific, ND2000) and cDNA was synthesized.\nThe synthesized cDNA from each mouse was quantified to a concentration of 50 ng using a micro-quantitative spectrophotometer, and qPCR was performed for the cytokines ‘IL-2, IL-6, IL-10, IL-17, TNF-α, IFN-γ’ using a SYBR green probe (CFX96, BIO-RAD).\nTo investigate the effects of drug administration on renal tissue in MRL/lpr mice, the tissue was fixed in 10% neutral buffered formalin at room temperature, followed by stepwise ethanol penetration for dehydration. The tissue was then embedded in xylene and paraffin.\nThe blocked tissues were sectioned into 4 μm thick slices using a microtome, followed by deparaffinization, hydration, and staining.\nHematoxylin & Eosin staining, PAS staining, and Masson trichrome staining were performed for pathological evaluation of the tissues.\nTo determine the extent of IgG deposition in kidney tissue of MRL/lpr mice, immunofluorescence staining was performed using anti-IgG antibodies on paraffin-embedded kidney tissue sections, and the staining results were examined using a fluorescence microscope.\nAdditionally, in 41-week-old female MRL/lpr mice, the compounds GO15F (30 mg/kg), GO48 (1 mg/kg), and GO88 (0.5 mg/kg) were administered intraperitoneally once daily.\nTo confirm the proliferative activity of hair follicle cells in the skin tissue of these mice, the mice were sacrificed 14 days after administration of the compounds of the present invention, and Ki-67 immunohistochemistry (IHC) was performed.\nFor this purpose, the excised skin tissue was fixed in formalin, embedded in paraffin blocks, and stained with a Ki-67-specific antibody on tissue sections prepared as slides."}, "[1]": {"molecular_target": "T1, PDK1 (phosphoinositide-dependent kinase 1) (Homo sapiens, UniProt O15530)", "T1 construct": "endogenous in cells; host or cells: SU-DHL-8 (ATCC CRL-2961)", "T1 sequence (O15530 1-556)": "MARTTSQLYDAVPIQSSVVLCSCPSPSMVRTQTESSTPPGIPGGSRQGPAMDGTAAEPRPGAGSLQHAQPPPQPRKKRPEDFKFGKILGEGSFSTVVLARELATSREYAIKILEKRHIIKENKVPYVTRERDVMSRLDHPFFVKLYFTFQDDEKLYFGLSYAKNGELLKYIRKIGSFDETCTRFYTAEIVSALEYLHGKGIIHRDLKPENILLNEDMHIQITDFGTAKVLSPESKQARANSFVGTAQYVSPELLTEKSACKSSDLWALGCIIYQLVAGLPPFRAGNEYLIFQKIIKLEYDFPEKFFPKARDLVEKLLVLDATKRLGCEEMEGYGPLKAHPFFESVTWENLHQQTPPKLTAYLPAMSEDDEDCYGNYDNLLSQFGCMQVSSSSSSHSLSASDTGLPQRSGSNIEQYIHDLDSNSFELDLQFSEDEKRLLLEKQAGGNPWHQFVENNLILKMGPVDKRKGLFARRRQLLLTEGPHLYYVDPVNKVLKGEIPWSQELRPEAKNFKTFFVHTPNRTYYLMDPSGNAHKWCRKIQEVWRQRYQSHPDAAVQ", "assay": "PDK1 phosphorylation (pPDK1) by flow cytometry in SU-DHL-8 cells", "assay_type": "cell-based", "settings": "SU-DHL-8, 24 hours, vs control group, FIG. 3", "procedure": "After stabilizing the cells, the compound of the present invention was added, and the cells were cultured for 24 hours.\nAfter drug treatment, the cells were harvested, and the Fc receptor blocking process was performed. The cells were then fixed and permeabilized using the Intracellular Staining Kit (Cat. No. BD554715) from BD Biosciences. Subsequently, the intracellular pPDK1 was stained using the pPDK1-PE fluorescently labeled antibody (BD Biosciences).\nReferring to the figure, the vertical axis represents the phosphorylation level of PDK1 (phospho-PDK1 expression level), and the horizontal axis denotes the concentration-dependent treatment conditions of each compound."}, "PDK1": {"molecular_target": "T2, PDK1 (Homo sapiens, UniProt O15530)", "T2 construct": "purchased Promega V9681", "T2 sequence (O15530 1-556)": "T1 sequence (O15530 1-556)", "assay": "PDK1 kinase activity inhibition, IC50 (in vitro kinase assay, luminescence)", "assay_type": "biochemical", "settings": "FIG. 4; read-out: IC50 for inhibiting PDK1 kinase activity", "procedure": "As shown in the table below, this invention establishes an in vitro kinase assay system to quantitatively evaluate PDK1 kinase activity inhibition, and utilizes this system to compare and analyze the activity of new PDK1 inhibitor candidate compounds.\nSpecifically, after reacting ATP (100 μM), substrate (PDKtide, 0.5 μg/μL), and PDK1 enzyme (30 ng) at a specific concentration, the difference in ATP consumption between the group treated with each candidate compound and the DMSO control group was measured using luciferase-based luminescence signals (RLU).\nAdditionally, enzyme kinetics analysis was performed to quantitatively analyze the effect of the compounds of the present invention on the enzymatic activity of PDK1 (3-Phosphoinositide-dependent protein kinase-1) and to confirm the inhibition pattern.\nPrior to the analysis, the half-maximal inhibitory concentration (IC50) values of the compounds GO15F, GO86, and GO88 of the present invention for inhibiting PDK1 kinase activity were determined, and the results are shown in FIG. 4."}}, "note": "Entries after “also recorded” stand apart in the source; their conditions may differ."}
{"smiles": "Nc1ncccc1C(=O)NCCCCCCCCCCCCN1CCNCC1", "note": "[Compound 14, 2-Amino-N-(12-(piperazin-1-yl)dodecyl)nicotinamide]", "values": [{"measurement": "Hair growth on the facial region", "setting": "MRL/lpr mice", "result": "hair growth was confirmed"}, {"measurement": "Inhibition of PDK1 phosphorylation (phospho-PDK1 expression level)", "setting": "[1]; listed as GO88", "result": "stronger PDK1 inhibition; also recorded: high inhibitory effects even at low concentrations"}, {"measurement": "IC50", "setting": "PDK1", "result": 0.013, "unit": "µM"}]}
{"smiles": "CC1(C)CN(CCCCCCCCCCCCC(=O)Nc2nc(N)c3[nH]cnc3n2)CCO1", "note": "[Compound 11, 12-[4-(2,2-dimethylmorpholin-4-yl)]dodecyl-N-(6-aminopurine-2-yl) carboxamide]", "values": [{"measurement": "Inhibition of PDK1 phosphorylation (phospho-PDK1 expression level)", "setting": "[1]; listed as GO86", "result": "stronger PDK1 inhibition; also recorded: high inhibitory effects even at low concentrations"}, {"measurement": "IC50", "setting": "PDK1", "result": 0.0113, "unit": "µM"}]}
{"smiles": "Nc1ncccc1C(=O)NCCCCCCCCCCCCF", "note": "[Compound 57, 2-Amino-N-(12-fluoro-dodecyl)-nicotinamide]", "values": [{"measurement": "Protein concentration in urine (proteinuria)", "setting": "MRL/lpr mice; 30 mg/kg once daily, vs control MRL/lpr, FIG. 16", "result": "significantly lower than that in the control group"}, {"measurement": "Hair growth on the facial region", "setting": "MRL/lpr mice", "result": "hair growth was confirmed"}, {"measurement": "B cells, T cells and macrophages in spleen (flow cytometry)", "setting": "MRL/lpr mice; FIG. 19", "result": "reduced the increased B cells, T cells, and macrophages"}, {"measurement": "IgG deposition in kidney tissue (immunofluorescence)", "setting": "MRL/lpr mice; FIG. 22", "result": "significantly lower"}, {"measurement": "Renal pathological tissue staining (glomerular capillary loops)", "setting": "MRL/lpr mice; H&E, PAS, Masson trichrome, FIG. 21", "result": "the glomerular capillary loops were well maintained"}, {"measurement": "Concentration of anti-dsDNA IgG in blood", "setting": "MRL/lpr mice; serum at necropsy (23 weeks), vs control MRL/lpr, FIG. 17", "result": "significantly lower"}, {"measurement": "Total IgG concentration in blood", "setting": "MRL/lpr mice; serum at necropsy, vs control MRL/lpr, FIG. 18", "result": "significantly lower"}, {"measurement": "Inhibition of PDK1 phosphorylation (phospho-PDK1 expression level)", "setting": "[1]", "result": "exhibited an inhibitory effect on PDK1 phosphorylation"}, {"measurement": "IC50", "setting": "PDK1", "result": 0.38, "unit": "µM"}]}
{"smiles": "Nc1ncccc1C(=O)NCCCCCCCCCCCCN1CCOCC1", "note": "[Compound 2, 2-Amino-N-(12-morpholin-4-yl-dodecyl)-nicotinamide]", "values": [{"measurement": "Hair growth on the facial region", "setting": "MRL/lpr mice", "result": "hair growth was confirmed"}, {"measurement": "Inhibition of PDK1 phosphorylation (phospho-PDK1 expression level)", "setting": "[1]; listed as GO48", "result": "stronger PDK1 inhibition; also recorded: high inhibitory effects even at low concentrations"}]}
